pIC50: −log10 of the molar value. Numbered stars: 1 amine (or outer) side, 2 acyl side, 3 side chain; on linkers, the order of the positions; unused ones are H or OH. Bridge positions count the residues as written; N and C are the ends. Square brackets hold non-standard residues; d marks the D form. Peptide text beside a SMILES is read from it. * marks the point of attachment. hPhe(3,5-F2-4-CF3) = N[C@@H](CCc1cc(F)c(C(F)(F)F)c(F)c1)C(=O)O; hPhe(3-Cl-4-CF3) = N[C@@H](CCc1ccc(C(F)(F)F)c(Cl)c1)C(=O)O; hPhe(3-F,4-CF3) = N[C@@H](CCc1ccc(C(F)(F)F)c(F)c1)C(=O)O; NMePhe(4-CF3) = CN[C@@H](Cc1ccc(C(F)(F)F)cc1)C(=O)O; NEtPhe(4-Me) = CCN[C@@H](Cc1ccc(C)cc1)C(=O)O; NMePhe(4-Cl) = CN[C@@H](Cc1ccc(Cl)cc1)C(=O)O; NMePhe(4-Me) = CN[C@@H](Cc1ccc(C)cc1)C(=O)O; NMedβ3hAla = C[C@H](CC(=O)[*:2])N(C)[*:1]; NMeGly(cPent) = CN[C@H](C(=O)O)C1CCCC1; NMeCha = CN[C@@H](CC1CCCCC1)C(=O)O; Hyp = O=C(O)[C@@H]1C[C@@H](O)CN1; NMeAhp(2) = CCCCC[C@H](NC)C(=O)O; NMeI = CC[C@H](C)[C@H](NC)C(=O)O; NMeD = CN[C@@H](CC(=O)O)C(=O)O; NMeL = CN[C@@H](CC(C)C)C(=O)O; NMeV = CN[C@H](C(=O)O)C(C)C; d(β3hA) = C[C@@H](N)CC(=O)O; Azetidin(1-yl) = C1CN(*)C1; Morpholide = C1CN(*)CCO1; NMeA = CN[C@@H](C)C(=O)O; NMeAib = CNC(C)(C)C(=O)O; Nle = CCCC[C@H](N)C(=O)O; Piperidide = C1CCN(*)CC1; Ac5c = NC1(C(=O)O)CCCC1; Aze = O=C(O)[C@@H]1CCN1; Cyclobutyl = C1CC(*)C1; Sar = CNCC(=O)O
Key:
[1] = target: protein-protein interaction between Kras and SOS1 (biotin-tagged human Kras loaded with GDP, His-tagged human SOS1) (Homo sapiens (Human), UniProt P01116, G12D); assay: Protein-protein interaction inhibition between Kras and SOS1 (KrasG12D-SOS PPI) using AlphaScreen; format: biochemical; settings: AlphaScreen; biotin-tagged human Kras loaded with GDP, His-tagged human SOS1; read-out: KRAS G12D-SOS PPI IC50;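 note: kras produced in E. coli, Ni-coupled donor beads and streptavidin acceptor beads, excitation 680 nm with emission detected at 520–620 nm via singlet oxygen transfer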
[2] = system: Human pancreatic cancer cell line AsPC-1 (G12D mutation Kras); assay: AsPC-1 cell growth inhibition (AsPC-1 CGI); format: cell-based; settings: read-out: AsPC-1 cell growth inhibition, 50% growth inhibitory concentration (IC50 value); 96 hours, CellTiter-Glo, values classified in ranges
Description: Test compounds were serially dilated with dimethyl sulfoxide, and 200 nL was then dispensed to a U-bottom 96-well plate using Labcyte Echo. […] The cell suspension was dispensed to a. plate containing a test compound at 100 μL per well and incubated at 37° C. in a 5% carbon dioxide gas incubator. 96 hours later, 80 μL of CellTiter-Glo (Promega) was added to each well and fluorescence was measured.

| Structure (SMILES) | pIC50 [1] | pIC50 [2] |
| --- | --- | --- |
| CC[C@H](C)[C@@H]1NC(=O)[C@H](CC(C)C)N(C)C(=O)C[C@@H](C(=O)N2CCOCC2)N(C)C(=O)[C@H]([C@@H](C)CC)N(C)C(=O)C2(CCCC2)NC(=O)[C@@H]2CCCN2C(=O)[C@H](CCc2ccc(C(F)(F)F)c(Cl)c2)NC(=O)CN(C)C(=O)[C@H](CC2CCCCC2)N(C)C(=O)[C@@H]2CCN2C(=O)[C@H](C)N(C)C1=O [Compound 40] ([NMeL]I[NMeA][Aze][NMeCha][Sar][hPhe(3-Cl-4-CF3)]P[Ac5c][NMeI][NMeD]-Morpholide; lactam N-11) | 9.02 | ≥ 7.70 |
| CC(C)C[C@H]1C(=O)N[C@@H](COC2CCC2)C(=O)N(C)[C@@H](C)C(=O)N2CC[C@H]2C(=O)N(C)[C@@H](CC2CCCCC2)C(=O)N(C)CC(=O)N[C@@H](CCc2ccc(C(F)(F)F)c(Cl)c2)C(=O)N2CCC[C@H]2C(=O)NC2(CCCC2)C(=O)N(C)[C@@H](C(C)C)C(=O)N(C)[C@H](C(=O)N2CCCCC2)CC(=O)N1C [Compound 45] ([NMeL]S(Cyclobutyl)[NMeA][Aze][NMeCha][Sar][hPhe(3-Cl-4-CF3)]P[Ac5c][NMeV][NMeD]-Piperidide; lactam N-11) | 7.08 | < 6.30 |
| CC[C@H](C)[C@@H]1NC(=O)[C@H](CC(C)C)N(C)C(=O)C[C@@H](C(=O)N2CCOCC2)N(C)C(=O)[C@H]([C@@H](C)CC)N(C)C(=O)C2(CCCC2)NC(=O)[C@@H]2CCCN2C(=O)[C@H](CCc2ccc(C(F)(F)F)c(F)c2)NC(=O)CN(C)C(=O)[C@H](Cc2ccc(C)cc2)N(C)C(=O)[C@@H]2CCN2C(=O)[C@H](C)N(C)C1=O [Compound 47] ([NMeL]I[NMeA][Aze][NMePhe(4-Me)][Sar][hPhe(3-F,4-CF3)]P[Ac5c][NMeI][NMeD]-Morpholide; lactam N-11) | 8.82 | ≥ 7.70 |
| CCCCC[C@H]1C(=O)N[C@@H]([C@@H](C)CC)C(=O)N[C@@H](C)C(=O)N2CC[C@H]2C(=O)N(C)[C@@H](Cc2ccc(C(F)(F)F)cc2)C(=O)N(C)CC(=O)N[C@@H](CCc2ccc(C(F)(F)F)c(Cl)c2)C(=O)N2CCC[C@H]2C(=O)NC2(CCCC2)C(=O)N(C)[C@@H]([C@@H](C)CC)C(=O)N(C)[C@H](C(=O)N2CCOCC2)CC(=O)N1C [Compound 54] ([NMeAhp(2)]IA[Aze][NMePhe(4-CF3)][Sar][hPhe(3-Cl-4-CF3)]P[Ac5c][NMeI][NMeD]-Morpholide; lactam N-11) | 8.72 | ≥ 7.70 |
| CC[C@H](C)[C@@H]1NC(=O)[C@H](CC(C)C)N(C)C(=O)C[C@@H](C(=O)N2CCC2)N(C)C(=O)[C@H](C2CCCC2)N(C)C(=O)C2(CCCC2)NC(=O)[C@@H]2CCCN2C(=O)[C@H](CCc2cc(F)c(C(F)(F)F)c(F)c2)NC(=O)CN(C)C(=O)[C@H](Cc2ccc(C)cc2)N(CC)C(=O)[C@@H]2CCN2C(=O)[C@H](C)N(C)C1=O [Compound 55] ([NMeL]I[NMeA][Aze][NEtPhe(4-Me)][Sar][hPhe(3,5-F2-4-CF3)]P[Ac5c][NMeGly(cPent)][NMeD]-{Azetidin(1-yl)}; lactam N-11) | 9.11 | ≥ 7.70 |
| CC[C@H](C)[C@@H]1NC(=O)[C@H](C)N(C)C(=O)C[C@@H](C)NC(=O)[C@H](CC(C)C)N(C)C(=O)C2(CCCC2)NC(=O)[C@H](CC(C)C)N(C)C(=O)[C@H](CCc2ccc(C(F)(F)F)c(Cl)c2)NC(=O)CN(C)C(=O)[C@H](CC2CCCCC2)N(C)C(=O)CN(C)C(=O)CN(C)C1=O [Compound 61] (cyclo([Ac5c][NMeL][d(β3hA)][NMeA]I[Sar][Sar][NMeCha][Sar][hPhe(3-Cl-4-CF3)][NMeL])) | 7.80 | < 6.30 |
| CCO[C@@H]1C[C@H]2C(=O)NC3(CCCC3)C(=O)N(C)[C@@H](C3CCCC3)C(=O)N(C)[C@H](C)CC(=O)N(C)[C@@H](CC(C)C)C(=O)N[C@@H]([C@@H](C)CC)C(=O)N(C)CC(=O)N(C)CC(=O)N(C)[C@@H](Cc3ccc(C(F)(F)F)cc3)C(=O)N(C)CC(=O)N[C@@H](CCc3cc(F)c(C(F)(F)F)c(F)c3)C(=O)N2C1 [Compound 66] (cyclo([Ac5c][NMeGly(cPent)][NMedβ3hAla][NMeL]I[Sar][Sar][NMePhe(4-CF3)][Sar][hPhe(3,5-F2-4-CF3)][Hyp](Et))) | 8.44 | ≥ 7.70 |
| CCCC[C@@H]1NC(=O)C(C)(C)N(C)C(=O)[C@H](CC(C)C)NC(=O)[C@H](CCc2ccc(C(F)(F)F)c(F)c2)NC(=O)CN(C)C(=O)[C@H](Cc2ccc(Cl)cc2)N(C)C(=O)CN(C)C(=O)CN(C)C(=O)[C@H]([C@@H](C)CC)NC(=O)[C@H](CC(C)C)N(C)C(=O)C[C@@H](C)N(C)C1=O [Compound 83] (cyclo(I[Sar][Sar][NMePhe(4-Cl)][Sar][hPhe(3-F,4-CF3)]L[NMeAib][Nle][NMedβ3hAla][NMeL])) | 6.96 | < 6.30 |

Reference: patent US20240148821A1, “PHARMACEUTICAL USE OF CYCLIC PEPTIDE COMPOUND” (CHUGAI SEIYAKU KABUSHIKI KAISHA, priority 2021, published 2024)
